{
  "source": "patent EP0539088B1",
  "about": "“Echinocandin b derivative” (MERCK & CO. INC., priority 1991, dated 1993)",
  "key": {"Candida albicans MY 1028": {"system": "Candida albicans MY 1028", "assay": "Minimum fungicidal concentration (MFC), microbroth dilution assay in YNBD", "format": "cell-based", "conditions": "MY1028, 35°C 24 hours, then SDA 24 hours at 28°C", "from_the_text": "(§1) The compounds of the present invention are active against many fungi and as previously indicated particularly against Candida species. The antifungal properties may be illustrated with the minimum fungicidal concentration (MFC) determination against certain Candida organisms in a microbroth dilution assay carried out in a Yeast Nitrogen Base (Difco) medium with 1 percent dextrose (YNBD).\n(§2) In carrying out the assay, Compound I was solubilized in 10 percent dimethyl sulfoxide (DMSO) and diluted to 2560 µg/ml. The compound was then diluted to 256 µg/ml in YNBD. 0.15 mL of the suspension was dispensed to the top row of a 96-well plate (each well containing 0.15 ml of YNBD) resulting in a drug concentration of 128 µg/ml. Two-fold dilutions were then made from the top row to obtain final drug concentrations ranging from 128 to 0.06 µg/ml. […]\n(§3) 96-well microplates were inoculated-using a MIC-2000 (Dynatech) which delivers […] per well yielding a final inoculum per well of 1.5-7.5 x 10^3 cells. […] The minimum inhibitory concentrations (MICs) were recorded as the lowest concentrations of drug showing no visible growth.\n(§4) After recording the MIC, the plates were shaken to resuspend the cells. […] The inoculated trays were incubated 24 hours at 28°C and then read for minimum fungicidal concentration (MFC). […]"}, "Candida albicans MY 1055": {"system": "Candida albicans MY 1055", "assay": "Minimum fungicidal concentration (MFC), microbroth dilution assay in YNBD", "format": "cell-based", "conditions": "MY1055, 35°C 24 hours, then SDA 24 hours at 28°C", "from_the_text": "as §1, §2, §3, §4"}, "[1]": {"system": "Candida albicans (MY 1055)", "assay": "In vivo kidney CFU reduction in mice infected with Candida albicans", "set-up": "species or system female DBA/2 mice", "conditions": "0.4 mg/kg I.P. twice daily for four consecutive days; kidneys after seven days", "procedure": "Growth from an overnight SDA culture of Candica albicans MY 1055 was suspended in sterile saline and the cell concentration determined by hemacytometer count and the cell suspension adjusted to 3.75 x 10^5 cells/ml. Then 0.2 milliliter of this suspension was administered I.V. in the tail vein of mice so that the final inoculum was 7.5 x 10^4 cells/mouse.\nThe assay then was carried out by administering aqueous solutions of Compound I at various concentrations intraperitoneally (I.P.), twice daily (b.i.d.) for four consecutive days to 18 to 20 gram female DBA/2 mice, which previously had been infected with Candida albicans (MY 1055) in the manner described above. Distilled water was administered I.P. to C. albicans challenged mice as controls. After seven days, the mice were sacrificed by carbon dioxide gas, paired kidneys were removed aseptically and placed in sterile polyethylene bags containing 5 milliters of sterile saline. The kidneys were homogenized in the bags, serially diluted in sterile saline and aliquots spread on the surface of SDA plates. The plates were incubated at 35°C for 48 hours and yeast colonies were enumerated for determination of colony forming units (CFU) per gram of kidneys."}, "red blood cells": {"system": "red blood cells", "assay": "Red blood cell lysis, minimum lytic concentration", "format": "cell-based, human", "from_the_text": "A harmful and potentially fatal side reaction of a number of drugs including certain antibiotically active echinocandin compounds is red blood cell lysis. […] The blood cell lysis property may be seen in the determination carried out in the following manner.\nThe blood employed is a 4 percent suspension of freshly drawn heparinized blood prepared by adding 2 milliliters of blood to 50 milliliters of sterile 5 percent dextrose.\nCompound I was solubilized in a small volume of dimethylsulfoxide (DMSO) that was then diluted with distilled water to a final concentration of 5 percent DMSO to obtain a drug suspension of 4.0 mg/ml. A 0.2 milliliter amount of the drug suspension was added to 1.4 milliliters of sterile 5 percent dextrose to obtain the test suspension. A diluent control was also prepared.\nA 96-well microliter plate with a well volume of 0.35 ml was used for the assay. Columns 2-12 were filled with 150 µl of sterile 5 percent dextrose. Then, 300 µl of test suspensions were dispensed into the wells in column 1 and serially two-fold diluted in 5 percent dextrose to yield final test concentrations of from 400 to 0.20 µg/ml. […]"}},
  "note": "Structures can show the parent of a compound that is named as a salt.",
  "data": [
    {"smiles": "CCC(C)CC(C)CCCCCCCCC(=O)NC1CC(O)C(OCCN)NC(=O)C2C(O)CCN2C(=O)C(C(O)CC(N)=O)NC(=O)C(C(O)C(O)c2ccc(O)cc2)NC(=O)C2CC(O)CN2C(=O)C(C(C)O)NC1=O", "note": "(centres unmarked) [Compound I, 1-[4-hydroxy-5-aminoethyloxy-N^2-(10,12-dimethyl-1-oxotetradecyl)-ornithine]-5-(3-hydroxyglutamine)-6-(3-hydroxyproline)-echinocandin B trifluoroacetate]", "values": [
      {"measurement": "MFC", "setting": "Candida albicans MY 1028", "result": 0.25, "unit": "µg/mL"},
      {"measurement": "MFC", "setting": "Candida albicans MY 1055", "result": 0.125, "unit": "µg/mL"},
      {"measurement": "reduction of recoverable Candida CFUs", "setting": "[1]", "result": "greater than 99%"},
      {"measurement": "red blood cell lysis", "setting": "red blood cells; at concentrations far beyond what would be used for therapeutic purposes", "result": "no red blood cell lysis"},
      {"measurement": "Minimum lytic concentration (MLC)", "setting": "red blood cells; lowest concentration producing complete or partial lysis, 2 hours at room temperature, tested 400 to 0.20 µg/ml", "result": 400, "unit": "µg/mL"}
    ]}
  ]
}
